From ChEMBL document CHEMBL4699613, “Synthesis and biological evaluation of indolylglyoxylamide bisphosphonates, antimitotic microtubule-targeting derivatives of indibulin with improved aqueous solubility” (Bioorg Med Chem Lett, 2020)

Tests used:
Paracentrotus lividus [1] = assay: Antimitotic activity against sea urchin embryo assessed as cleavage arrest measured 3 to 6 hrs post-fertilization by light microscopy analysis; assay type: functional; conditions: time hrs 3-6
Paracentrotus lividus [2] = assay: Antimitotic activity against sea urchin embryo assessed as cleavage alteration measured 3 to 6 hrs post-fertilization by light microscopy analysis; assay type: functional; conditions: time hrs 3-6
Paracentrotus lividus [3] = assay: Induction of microtubule destabilization in sea urchin embryo assessed as embryo spinning measured after 0.5 to 20 hrs; assay type: tissue-based; conditions: time hrs 0.5-20
Paracentrotus lividus [4] = assay: Antimitotic activity against sea urchin embryo assessed as cleavage arrest measured 2.5 to 5.5 hrs post-fertilization using compound stored for 1 hr in 96% EtOH at room temperature by light microscopy analysis; assay type: functional; conditions: time hrs 2.5-5.5
Paracentrotus lividus [5] = assay: Antimitotic activity against sea urchin embryo assessed as cleavage alteration measured 2.5 to 5.5 hrs post-fertilization using compound stored for 1 hr in 96% EtOH at room temperature by light microscopy analysis; assay type: functional; conditions: time hrs 2.5-5.5
Paracentrotus lividus [6] = assay: Antimitotic activity against sea urchin embryo assessed as cleavage arrest measured 2.5 to 5.5 hrs post-fertilization using compound stored for 13 hrs in 96% EtOH at room temperature by light microscopy analysis; assay type: functional; conditions: time hrs 2.5-5.5
Paracentrotus lividus [7] = assay: Antimitotic activity against sea urchin embryo assessed as cleavage arrest measured 2.5 to 5.5 hrs post-fertilization using compound stored for 4.5 days in 96% EtOH at room temperature by light microscopy analysis; assay type: functional; conditions: time hrs 2.5-5.5
Paracentrotus lividus [8] = assay: Antimitotic activity against sea urchin embryo assessed as cleavage arrest measured 2.5 to 5.5 hrs post-fertilization using compound stored for 2.5 days in 96% EtOH at room temperature by light microscopy analysis; assay type: functional; conditions: time hrs 2.5-5.5
Paracentrotus lividus [9] = assay: Antimitotic activity against sea urchin embryo assessed as cleavage alteration measured 2.5 to 5.5 hrs post-fertilization using compound stored for 2.5 days in 96% EtOH at room temperature by light microscopy analysis; assay type: functional; conditions: time hrs 2.5-5.5
Paracentrotus lividus [10] = assay: Antimitotic activity against sea urchin embryo assessed as cleavage alteration measured 2.5 to 5.5 hrs post-fertilization using compound stored for 13 hrs in 96% EtOH at room temperature by light microscopy analysis; assay type: functional; conditions: time hrs 2.5-5.5
Paracentrotus lividus [11] = assay: Antimitotic activity against sea urchin embryo assessed as cleavage alteration measured 2.5 to 5.5 hrs post-fertilization using compound stored for 4.5 days in 96% EtOH at room temperature by light microscopy analysis; assay type: functional; conditions: time hrs 2.5-5.5
[12] = Aqueous solubility of the compound at physiological pH by H-NMR analysis; assay type: physicochemical; conditions: aqueous solution
MCF7 = assay: Cytotoxicity against human MCF7 cells assessed as cell growth inhibition measured after 24 to 48 hrs by SRB assay; assay type: functional, cell-based
[13] = Cytotoxicity against human KKU-100 cells assessed as cell growth inhibition after 48 hrs; assay type: functional, cell-based; conditions: KKU100, 48 h
Paracentrotus lividus [14] = assay: Antimitotic activity against sea urchin embryo assessed as cleavage alteration measured 2.5 to 6 hrs post-fertilization by light microscopy analysis; assay type: functional; conditions: time hrs 2.5-6
Paracentrotus lividus [15] = assay: Antimitotic activity against sea urchin embryo assessed as cleavage arrest measured 2.5 to 6 hrs post-fertilization by light microscopy analysis; assay type: functional; conditions: time hrs 2.5-6
PC-3 = assay: Cytotoxicity against human PC-3 cells assessed as cell growth inhibition; assay type: functional, cell-based
HCT-116 = assay: Cytotoxicity against human HCT-116 cells assessed as cell growth inhibition; assay type: functional, cell-based
HFF = assay: Cytotoxicity against human HFF cells assessed as cell growth inhibition; assay type: cell-based
A-375 = assay: Cytotoxicity against human A-375 cells assessed as cell growth inhibition; assay type: functional, cell-based
T47D = assay: Cytotoxicity against human T47D cells assessed as cell growth inhibition; assay type: functional, cell-based
DU-145 = assay: Cytotoxicity against human DU-145 cells assessed as cell growth inhibition; assay type: functional, cell-based
SK-OV-3 = assay: Cytotoxicity against human SK-OV-3 cells assessed as cell growth inhibition; assay type: functional, cell-based
[16] = Selectivity ratio of IC50 for human HFF cells to IC50 for human A-375 cells assessed as cell growth inhibition
A549 = assay: Cytotoxicity against human A549 cells assessed as cell growth inhibition; assay type: functional, cell-based
[17] = Aggregation property of the compound in water; assay type: physicochemical; conditions: buffer
Ca-Ski = assay: Cytotoxicity against human Ca-Ski cells assessed as cell growth inhibition; assay type: functional, cell-based
PANC-1 = assay: Cytotoxicity against human PANC-1 cells assessed as cell growth inhibition measured after 72 hrs by MTT assay; assay type: functional, cell-based; conditions: PANC-1, 72 h
CFPAC-1 = assay: Cytotoxicity against human CFPAC-1 cells assessed as cell growth inhibition measured after 72 hrs by MTT assay; assay type: functional, cell-based; conditions: CFPAC-1, 72 h
SiHa = assay: Cytotoxicity against human SiHa cells assessed as cell growth inhibition; assay type: functional, cell-based
HeLa = assay: Cytotoxicity against human HeLa cells assessed as cell growth inhibition; assay type: functional, cell-based
BXPC-3 = assay: Cytotoxicity against human BXPC-3 cells assessed as cell growth inhibition measured after 72 hrs by MTT assay; assay type: functional, cell-based; conditions: BXPC-3, 72 h
Paracentrotus lividus [18] = assay: Antimitotic activity against sea urchin embryo assessed as cleavage alteration measured 2.5 to 5.5 hrs post-fertilization using compound stored for 4 days in 96% EtOH at room temperature by light microscopy analysis; assay type: functional; conditions: time hrs 2.5-5.5
Paracentrotus lividus [19] = assay: Antimitotic activity against sea urchin embryo assessed as cleavage arrest measured 2.5 to 5.5 hrs post-fertilization using compound stored for 2 days in 96% EtOH at room temperature by light microscopy analysis; assay type: functional; conditions: time hrs 2.5-5.5
Paracentrotus lividus [20] = assay: Antimitotic activity against sea urchin embryo assessed as cleavage alteration measured 2.5 to 5.5 hrs post-fertilization using compound stored for 2 days in 96% EtOH at room temperature by light microscopy analysis; assay type: functional; conditions: time hrs 2.5-5.5
Paracentrotus lividus [21] = assay: Antimitotic activity against sea urchin embryo assessed as cleavage arrest measured 2.5 to 5.5 hrs post-fertilization using compound stored for 4 days in 96% EtOH at room temperature by light microscopy analysis; assay type: functional; conditions: time hrs 2.5-5.5
Paracentrotus lividus [22] = assay: Antimitotic activity against sea urchin embryo assessed as cleavage alteration measured 2.5 to 5.5 hrs post-fertilization using compound stored for 1 month in 96% EtOH at room temperature by light microscopy analysis; assay type: functional; conditions: time hrs 2.5-5.5
Paracentrotus lividus [23] = assay: Antimitotic activity against sea urchin embryo assessed as cleavage arrest measured 2.5 to 5.5 hrs post-fertilization using compound stored for 1 month in 96% EtOH at room temperature by light microscopy analysis; assay type: functional; conditions: time hrs 2.5-5.5

COc1ccc(NC(=O)C(=O)c2c[nH]c3cc(F)ccc23)cc1
EC (Paracentrotus lividus [1]): 0.005 µM | EC (Paracentrotus lividus [2]): 0.001 µM | EC (Paracentrotus lividus [3]): 1 µM

CCOP(=O)(OCC)C(Cn1cc(C(=O)C(=O)Nc2ccc3c(c2)OCCO3)c2ccccc21)P(=O)(OCC)OCC
EC (Paracentrotus lividus [3]): 0.1 µM | EC (Paracentrotus lividus [4]): 0.2 µM | EC (Paracentrotus lividus [5]): 0.5 µM

CCOP(=O)(OCC)C(Cn1cc(C(=O)C(=O)Nc2ccc3c(c2)OCCO3)c2ccc(F)cc21)P(=O)(OCC)OCC
EC (Paracentrotus lividus [3]): 0.1 µM | EC (Paracentrotus lividus [6]): 0.05 µM | EC (Paracentrotus lividus [7]): 0.01 µM | EC (Paracentrotus lividus [8]): 0.02 µM | EC (Paracentrotus lividus [4]): 0.2 µM | EC (Paracentrotus lividus [9]): <0.02 µM | EC (Paracentrotus lividus [5]): 0.5 µM | EC (Paracentrotus lividus [10]): 0.02 µM | EC (Paracentrotus lividus [11]): <0.01 µM

O=C(Nc1ccc2c(c1)OCCO2)C(=O)c1c[nH]c2cc(F)ccc12
EC (Paracentrotus lividus [1]): 0.02 µM | EC (Paracentrotus lividus [2]): 0.005 µM | EC (Paracentrotus lividus [3]): 0.5 µM

CCOP(=O)(OCC)C(Cn1cc(C(=O)C(=O)Nc2ccc(OC)cc2)c2ccc(F)cc21)P(=O)(OCC)OCC
EC (Paracentrotus lividus [3]): 0.5 µM | EC (Paracentrotus lividus [4]): 0.2 µM | EC (Paracentrotus lividus [5]): 0.5 µM

COc1ccc(NC(=O)C(=O)c2cn(CC(P(=O)([O-])[O-])P(=O)([O-])[O-])c3ccccc23)cc1.[Na+].[Na+].[Na+].[Na+]
solubility [12]: 10000 µg/mL

COc1ccc(NC(=O)C(=O)c2c[nH]c3ccccc23)cc1
EC (Paracentrotus lividus [1]): 0.005 µM | EC (Paracentrotus lividus [2]): 0.001 µM | EC (Paracentrotus lividus [3]): 0.2 µM

NCCC(O)(P(=O)(O)O)P(=O)(O)O [PAMIDRONIC ACID]
IC50 (MCF7): 22900 nM | IC50 [13]: 147000 nM

O=P(O)(O)C(O)(Cc1cccnc1)P(=O)(O)O [RISEDRONIC ACID]
IC50 (MCF7): 248000 nM

COc1cccc(NC(=O)C(=O)c2c[nH]c3cc(F)ccc23)c1
EC (Paracentrotus lividus [1]): >4 µM | EC (Paracentrotus lividus [2]): 0.2 µM | EC (Paracentrotus lividus [3]): > 4 µM

COc1ccc(NC(=O)C(=O)c2cn(CC(P(=O)(O)O)P(=O)(O)O)c3ccccc23)cc1 [listing 1 of 2 here]
EC (Paracentrotus lividus [3]): 0.005 µM

CCOP(=O)(OCC)C(Cn1cc(C(=O)C(=O)O)c2ccc(F)cc21)P(=O)(OCC)OCC
EC (Paracentrotus lividus [3]): > 4 µM | EC (Paracentrotus lividus [14]): >4 µM | EC (Paracentrotus lividus [15]): >4 µM

COc1ccc(NC(=O)C(=O)c2cn(CC(P(=O)(O)O)P(=O)(O)O)c3ccccc23)cc1 [listing 2 of 2 here]
IC50 (PC-3): 7540 nM | IC50 (HCT-116): 222 nM | IC50 (HFF): 2390 nM | EC (Paracentrotus lividus [14]): 0.001 µM | IC50 (A-375): 34 nM | IC50 (T47D): 658 nM | EC (Paracentrotus lividus [15]): 0.002 µM | IC50 (DU-145): 478 nM | IC50 (SK-OV-3): 3230 nM | Ratio IC50 [16]: 70 | IC50 (A549): 223 nM

NCCCC(O)(P(=O)(O)O)P(=O)(O)O [ALENDRONIC ACID]
IC50 (MCF7): 69500 nM

CCOP(=O)(OCC)C(Cn1cc(C(=O)C(=O)Nc2cccc(OC)c2)c2ccc(F)cc21)P(=O)(OCC)OCC
EC (Paracentrotus lividus [3]): > 4 µM | EC (Paracentrotus lividus [4]): >4 µM | EC (Paracentrotus lividus [5]): 1 µM

Nc1ncnc2c1ccn2[C@@H]1O[C@H](CO)[C@@H](O)[C@H]1O [TUBERCIDIN]
IC50 (PC-3): 76 nM | IC50 (HCT-116): 82 nM | IC50 (HFF): 790 nM | IC50 (A-375): 43 nM | IC50 (T47D): 13 nM | IC50 (DU-145): 256 nM | IC50 (SK-OV-3): 131 nM | IC50 (A549): 44 nM

O=C(Nc1ccc2c(c1)OCCO2)C(=O)c1c[nH]c2ccccc12
EC (Paracentrotus lividus [1]): 0.005 µM | EC (Paracentrotus lividus [2]): 0.002 µM | EC (Paracentrotus lividus [3]): 0.02 µM

O=C(Nc1ccncc1)C(=O)c1cn(Cc2ccc(Cl)cc2)c2ccccc12 [INDIBULIN]
IC50 (PC-3): 40 nM | IC50 (HCT-116): 50 nM | EC (Paracentrotus lividus [3]): 0.1 µM | EC (Paracentrotus lividus [14]): 0.01 µM | IC50 (T47D): 40 nM | EC (Paracentrotus lividus [15]): 0.02 µM | IC50 (DU-145): 50 nM | CAC [17]: 0.00039 mg/mL | IC50 (SK-OV-3): 200 nM | IC50 (A549): 398 nM

O=P(O)(O)C(O)(Cn1ccnc1)P(=O)(O)O [ZOLEDRONIC ACID]
IC50 (Ca-Ski): 10000 nM | IC50 (PANC-1): 10000 nM | IC50 (CFPAC-1): 10000 nM | IC50 (SiHa): 10000 nM | IC50 (HeLa): 10000 nM | IC50 (BXPC-3): 10000 nM

CCOP(=O)(OCC)C(Cn1cc(C(=O)C(=O)Nc2ccc(OC)cc2)c2ccccc21)P(=O)(OCC)OCC
EC (Paracentrotus lividus [3]): 0.2 µM | EC (Paracentrotus lividus [4]): 0.2 µM | EC (Paracentrotus lividus [18]): 0.005 µM | EC (Paracentrotus lividus [19]): 0.1 µM | EC (Paracentrotus lividus [20]): 0.02 µM | EC (Paracentrotus lividus [21]): 0.02 µM | EC (Paracentrotus lividus [22]): 0.002 µM | EC (Paracentrotus lividus [5]): 0.5 µM | EC (Paracentrotus lividus [23]): 0.005 µM
